Toxic doses and inconclusive results are not listed. Rule as the data show it: active = T/C of 150% or more; inactive = T/C below 125%.
System: L1210 leukemia ip in BDF1 mice, survival T/C
Assay: NCI In Vivo Anticancer Drug Screen. Data for tumor model L1210 Leukemia (intraperitoneal) in B6D2F1 (BDF1) mice
Details: endpoint: mean survival time, higher = longer survival
How it was run: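 Transplanted-tumor mice were given test agent; controls received vehicle only. Survival readings from the two groups were divided (treated over control).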

[1] = dose: 100.0 mg/kg/injection, schedule: Q01DX001 (ip), vehicle: carboxymethylcellulose (CMC)
[2] = dose: 200.0 mg/kg/injection, schedule: Q01DX001 (ip), vehicle: carboxymethylcellulose (CMC)
[3] = dose: 400.0 mg/kg/injection, schedule: Q01DX001 (ip), vehicle: carboxymethylcellulose (CMC)
[4] = dose: 100.0 mg/kg/injection, schedule: Q01DX009 (ip), vehicle: saline with Tween-80
[5] = dose: 100.0 mg/kg/injection, schedule: Q04DX003 (ip), vehicle: saline with Tween-80
[6] = dose: 200.0 mg/kg/injection, schedule: Q04DX003 (ip), vehicle: saline with Tween-80
[7] = dose: 400.0 mg/kg/injection, schedule: Q01DX009 (ip), vehicle: saline with Tween-80
[8] = dose: 400.0 mg/kg/injection, schedule: Q04DX003 (ip), vehicle: saline with Tween-80
[9] = dose: 100.0 mg/kg/injection, schedule: Q04DX002 (ip), vehicle: saline with Tween-80
[10] = dose: 200.0 mg/kg/injection, schedule: Q04DX002 (ip), vehicle: saline with Tween-80
[11] = dose: 400.0 mg/kg/injection, schedule: Q04DX002 (ip), vehicle: saline with Tween-80
[12] = dose: 100.0 mg/kg/injection, schedule: Q01DX001 (ip), vehicle: Klucel (hydroxypropylcellulose) (HPC)
[13] = dose: 100.0 mg/kg/injection, schedule: Q01DX009 (ip), vehicle: Klucel (hydroxypropylcellulose) (HPC)
[14] = dose: 100.0 mg/kg/injection, schedule: Q04DX003 (ip), vehicle: Klucel (hydroxypropylcellulose) (HPC)
[15] = dose: 200.0 mg/kg/injection, schedule: Q01DX009 (ip), vehicle: Klucel (hydroxypropylcellulose) (HPC)
[16] = dose: 200.0 mg/kg/injection, schedule: Q04DX003 (ip), vehicle: Klucel (hydroxypropylcellulose) (HPC)
[17] = dose: 400.0 mg/kg/injection, schedule: Q04DX003 (ip), vehicle: Klucel (hydroxypropylcellulose) (HPC)
[18] = dose: 200.0 mg/kg/injection, schedule: Q01DX009 (ip), vehicle: saline with Tween-80
[19] = dose: 100.0 mg/kg/injection, schedule: Q01DX009 (ip), vehicle: acetone
[20] = dose: 100.0 mg/kg/injection, schedule: Q04DX003 (ip), vehicle: acetone
[21] = dose: 200.0 mg/kg/injection, schedule: Q01DX009 (ip), vehicle: acetone
[22] = dose: 200.0 mg/kg/injection, schedule: Q04DX003 (ip), vehicle: acetone
[23] = dose: 100.0 mg/kg/injection, schedule: Q04DX002 (ip), vehicle: Klucel (hydroxypropylcellulose) (HPC)
[24] = dose: 200.0 mg/kg/injection, schedule: Q04DX002 (ip), vehicle: Klucel (hydroxypropylcellulose) (HPC)

Measured: T/C

COc1cc(C(C)S(=O)(=O)c2ccc(C)cc2)ccc1O (stereo not drawn)
inactive: [1] 89 % of control | [2] 93 % of control | [3] 93 % of control

CC(CNC1CCCCC1)OC(=O)c1ccc(N)cc1 (stereo not drawn)
inactive: dose: 75.0 mg/kg/injection, schedule: Q01DX001 (ip), vehicle: saline 100 % of control

O/N=C1\c2ccccc2-c2cc(Cl)ccc21
inactive: [1] 94 % of control | [2] 109 % of control | [3] 103 % of control

COc1ccccc1/C=C/C(=O)c1ccccc1
inactive: [4] 89 % of control | [5] 98 % of control | [6] 94 % of control | [7] 89 % of control | [8] 96 % of control

CCOc1ccccc1/C=C1N=C(/C=C/c2ccccc2)OC\1=O
inactive: [9] 92 % of control | [10] 89 % of control | [11] 97 % of control

OCCOc1c(Cl)c(C(Cl)(Cl)Cl)nc2ccccc12
inactive: dose: 25.0 mg/kg/injection, schedule: Q01DX001 (ip), vehicle: Klucel (hydroxypropylcellulose) (HPC) 103 % of control | dose: 50.0 mg/kg/injection, schedule: Q01DX001 (ip), vehicle: Klucel (hydroxypropylcellulose) (HPC) 106 % of control | [12] 106 % of control

CCCCCCC(C)(C)NC(N)=O
inactive: dose: 100.0 mg/kg/injection, schedule: Q01DX001 (ip), vehicle: saline 98 % of control | dose: 200.0 mg/kg/injection, schedule: Q01DX001 (ip), vehicle: saline 101 % of control | dose: 400.0 mg/kg/injection, schedule: Q01DX001 (ip), vehicle: saline 93 % of control

Cn1c2ccccc2c2cc[n+]3c(c21)CCCC3
inactive: dose: 5.0 mg/kg/injection, schedule: Q01DX001 (ip), vehicle: saline 108 % of control | dose: 10.0 mg/kg/injection, schedule: Q01DX001 (ip), vehicle: saline 108 % of control | dose: 20.0 mg/kg/injection, schedule: Q01DX001 (ip), vehicle: saline 115 % of control | dose: 40.0 mg/kg/injection, schedule: Q01DX001 (ip), vehicle: saline 115 % of control

Clc1ccc2c(c1)/C(=C\c1ccnc3ccccc13)c1cc(Cl)cc(Cl)c1-2
inactive: [12] 94 % of control | [13] 93 % of control | [14] 93 % of control | dose: 200.0 mg/kg/injection, schedule: Q01DX001 (ip), vehicle: Klucel (hydroxypropylcellulose) (HPC) 92 % of control | [15] 98 % of control | [16] 88 % of control | dose: 400.0 mg/kg/injection, schedule: Q01DX001 (ip), vehicle: Klucel (hydroxypropylcellulose) (HPC) 94 % of control | [17] 88 % of control

Cc1ccc2cccc(CC(=O)NN)c2c1
inactive: dose: 50.0 mg/kg/injection, schedule: Q01DX001 (ip), vehicle: saline with Tween-80 92 % of control | dose: 50.0 mg/kg/injection, schedule: Q01DX009 (ip), vehicle: saline with Tween-80 102 % of control | dose: 50.0 mg/kg/injection, schedule: Q04DX003 (ip), vehicle: saline with Tween-80 92 % of control | dose: 100.0 mg/kg/injection, schedule: Q01DX001 (ip), vehicle: saline with Tween-80 92 % of control | [4] 102 % of control | [9] 93 % of control | [5] 90 % of control | dose: 200.0 mg/kg/injection, schedule: Q01DX001 (ip), vehicle: saline with Tween-80 103 % of control | [18] 111 % of control | [10] 98 % of control | [6] 89 % of control

O=[N+]([O-])c1ccc(Oc2ccc[n+]([O-])c2)nc1
inactive: [13] 103 % of control | [14] 93 % of control | [15] 101 % of control | [16] 96 % of control | dose: 400.0 mg/kg/injection, schedule: Q01DX009 (ip), vehicle: Klucel (hydroxypropylcellulose) (HPC) 98 % of control | [17] 95 % of control

COc1cc2c(cc1OC(C)=O)C=CCCC2=O
inactive: dose: 100.0 mg/kg/injection, schedule: Q01DX009 (ip), vehicle: other 97 % of control | dose: 100.0 mg/kg/injection, schedule: Q04DX003 (ip), vehicle: other 105 % of control | dose: 200.0 mg/kg/injection, schedule: Q01DX009 (ip), vehicle: other 90 % of control | dose: 200.0 mg/kg/injection, schedule: Q04DX003 (ip), vehicle: other 105 % of control | dose: 400.0 mg/kg/injection, schedule: Q01DX009 (ip), vehicle: other 97 % of control | dose: 400.0 mg/kg/injection, schedule: Q04DX003 (ip), vehicle: other 104 % of control

COc1cc(C(=O)O)ccc1N
inactive: [5] 102 % of control | [6] 104 % of control | [8] 102 % of control

CCCCN(CCO)C(C#CC(C)(C)O)C(C)C (stereo not drawn)
inactive: [5] 95 % of control | [6] 101 % of control

COc1ccc2c(c1)CCCC2CC(=O)c1ccccc1 (stereo not drawn)
inactive: dose: 50.0 mg/kg/injection, schedule: Q01DX009 (ip), vehicle: acetone 98 % of control | [19] 95 % of control | [20] 86 % of control | dose: 198.0 mg/kg/injection, schedule: Q01DX009 (ip), vehicle: other 107 % of control | [21] 98 % of control | [22] 87 % of control | dose: 300.0 mg/kg/injection, schedule: Q01DX009 (ip), vehicle: other 104 % of control

Cc1cccc(NC(=O)c2ccc(Cl)cc2Cl)n1 (tested in a mixture with another compound)
inactive: [23] 103 % of control | [24] 103 % of control | dose: 400.0 mg/kg/injection, schedule: Q04DX002 (ip), vehicle: Klucel (hydroxypropylcellulose) (HPC) 92 % of control

Cc1cccc(NC(=S)/C(=C(/[O-])c2ccccc2)[n+]2ccc3ccccc3c2)c1
inactive: [9] 98 % of control | [10] 98 % of control | [11] 91 % of control

CCCC1(CCC)NC(=O)N(CC(=O)OCC)C1=O
inactive: [4] 94 % of control | [18] 96 % of control | [7] 102 % of control

c1ccc2c(c1)CC([CH2][Hg][CH2]C1Cc3ccccc3O1)O2 (stereo not drawn)
inactive: [1] 101 % of control | [2] 95 % of control

c1cc2cccc3c2c(c1)c1sc2c4cccc5cccc(c54)c2c31
inactive: [4] 100 % of control | [5] 101 % of control | [18] 92 % of control | [6] 90 % of control | [7] 89 % of control | [8] 94 % of control

CCC(=O)c1ccc(N2CCCCC2)cc1
inactive: [23] 103 % of control | [24] 89 % of control

N#[N+]c1c([O-])[nH]c(=S)[nH]c1=O
inactive: [19] 92 % of control | [20] 100 % of control | [21] 96 % of control | [22] 103 % of control | dose: 400.0 mg/kg/injection, schedule: Q01DX009 (ip), vehicle: acetone 88 % of control | dose: 400.0 mg/kg/injection, schedule: Q04DX003 (ip), vehicle: acetone 94 % of control
